According to patent EP3985010A1, “SPIROCYCLIC INHIBITORS OF HEPATITIS B VIRUS” (priority 2020, dated 2022):

System: HBV
Assay: Anti-HBV activity in vitro: quantification of extracellular HBV DNA by direct qPCR in HepAD38 cells
Type: cell-based
Settings: Hepatitis B virus, doxycycline-free medium, 96 hours at 37°C, 8-point dose-response curve, read-out: HBV inh EC50
Excerpt: HepAD38 cell line (Ladner et al., Antimicrob Agents Chemother, 1997, 41, 1715-20) was used for HBV inhibition assays. HepAD38 is a subclone, derived from hepatoblastoma cell line HepG2 (ATCC® Number: HB-8065™), that expresses HBV genome under the transcriptional control of a tetracycline-responsive promoter in a TET-OFF system: addition of doxycycline, an antibiotic belonging to the class of tetracycline, suppresses HBV replication, while its removal switches on the process allowing HBV viral particles release in the cell supernatant. HepAD38 cell line is maintained in DMEM/F12, supplemented with 10% of fetal bovine serum, 1% of glutamine, 1% of penicillin/streptomycin, 0.4 mg/ml G418 and 0,3 ug/ml tetracycline. For the HBV inhibition assay, doxycycline-free medium is used in order to allow virion production.
HBV inhibition activity in vitro was performed in 96 multiwell plates. During the initial (primary) screening, compounds were first tested in triplicates at concentrations of 0.02 µM, 0.1µM, 0.5µM and 1µM. For selected compounds, an 8-point dose-response curve was obtained using 1:2 serial dilutions (starting from 0.01µM, 0.1µM, 0.4µM or 5 µM, depending on the degree of inhibition observed during the primary screening). From the dose-response curves, half maximal effective concentration (EC50) could be calculated (see also below).
In more detail, compounds - typically dissolved in DMSO stock solutions - were diluted to 2x the final desired concentration in 100 µl of the above medium (without doxycycline) and plated in three replicates in the 96-well plates.
Simultaneously, HepAD38 cells - extensively pre-washed in doxycycline-free medium in order to induce HBV production - were suspended at 2^∗10^4 cells in 100 µl of doxycycline-free medium and added to each well of the plate, to yield a final assay volume of 200 µl DMSO - used for stock solutions and compounds dilutions - which was always present in the assays at a final concentration of 0.5%.
Plates were then incubated 96 hours at 37°C and then subjected to cell viability assays and extracellular HBV quantification, in order to evaluate both the cytotoxic potential and the antiviral activity of compounds. Cytotoxicity was assessed by a commercial fluorescence assay that measures the metabolic activity of cells, directly related to cell viability (Cell Titer Blue, Promega). Anti-HBV activity was evaluated by quantification of extracellular HBV DNA with direct qPCR. In particular, supernatant was collected and centrifuged for cell debris clarification, viral DNA was extracted from virions by addition of lysis buffer (1 mM 1,4-dithiothreitol, 0.2% sodium dodecyl sulphate) and incubated at 95°C for 10 min. Samples were then diluted 1:40 and real time PCR amplification was performed with SYBR green assay (Power SYBR™ Green PCR Master Mix-Thermo Fisher Scientific) and specific HBV primer (HBV-DF:5'-[…]-3' (SEQ ID No. 1), HBV-DR:5'-[…]-3' (SEQ ID No. 2)).
Antiviral activity data for each compound are reported as EC50 value (see Table 1 legend). Excel and Graphpad Prism programs are typically used for data elaboration and EC50 calculation.

| SMILES | EC50 [nM] |
| --- | --- |
| C[C@H](NC(=O)C(=O)N1CC2(COc3c(cn(C)c3C(=O)Nc3ccc(F)c(Cl)c3)S(=O)(=O)N2)C1)C(F)(F)F [Example E16, (S)-N-(3-chloro-4-fluorophenyl)-7'-methyl-1-(2-oxo-2-((1,1,1-trifluoropropan-2-yl)amino)acetyl)-2'H,4'H,7'H-spiro[azetidine-3,3'-pyrrolo[3,4-b][1,4,5]oxathiazepine]-6'-carboxamide 1',1'-dioxide] | < 500 |
| Cn1cc2c(c1C(=O)Nc1ccc(F)c(Cl)c1)OCC1(CN(C(=O)C(=O)N3CC(F)(F)C3)C1)NS2(=O)=O [Example E17, N-(3-chloro-4-fluorophenyl)-1-(2-(3,3-difluoroazetidin-1-yl)-2-oxoacetyl)-7'-methyl-2'H,4'H,7'H-spiro[azetidine-3,3'-pyrrolo[3,4-b][1,4,5]oxathiazepine]-6'-carboxamide 1',1'-dioxide] | < 500 |
| C[C@H](NC(=O)C(=O)N1CC2(COc3c(cn(C)c3C(=O)Nc3ccc(F)c(C(F)F)c3)S(=O)(=O)N2)C1)C(F)(F)F [Example E18, (S)-N-(3-(difluoromethyl)-4-fluorophenyl)-7'-methyl-1-(2-oxo-2-((1,1,1-trifluoropropan-2-yl)amino)acetyl)-2'H,4'H,7'H-spiro[azetidine-3,3'-pyrrolo[3,4-b][1,4,5]oxathiazepine]-6'-carboxamide 1',1'-dioxide] | < 500 |
| Cn1cc2c(c1C(=O)Nc1ccc(F)c(C(F)F)c1)OCC1(CN(C(=O)C(=O)NC3CC3)C1)NS2(=O)=O [Example E19, 1-(2-(cyclopropylamino)-2-oxoacetyl)-N-(3-(difluoromethyl)-4-fluorophenyl)-7'-methyl-2'H,4'H,7'H-spiro[azetidine-3,3'-pyrrolo[3,4-b][1,4,5]oxathiazepine]-6'-carboxamide 1',1'-dioxide] | < 500 |
| Cn1cc2c(c1C(=O)Nc1ccc(F)c(Cl)c1)OC[C@]1(CCN(C(=O)C(=O)NCC(F)(F)F)C1)NS2(=O)=O [Example E20, (R)-N-(3-chloro-4-fluorophenyl)-7'-methyl-1-(2-oxo-2-((2,2,2-trifluoroethyl)amino)acetyl)-2'H,4'H,7'H-spiro[pyrrolidine-3,3'-pyrrolo[3,4-b][1,4,5]oxathiazepine]-6'-carboxamide 1',1'-dioxide] | < 500 |
| Cn1cc2c(c1C(=O)Nc1ccc(F)c(Cl)c1)OC[C@]1(CCN(C(=O)C(=O)NC(C)(C)C(F)(F)F)C1)NS2(=O)=O [Example E21, (R)-N-(3-chloro-4-fluorophenyl)-7'-methyl-1-(2-oxo-2-((1,1,1-trifluoro-2-methylpropan-2-yl)amino)acetyl)-2'H,4'H,7'H-spiro[pyrrolidine-3,3'-pyrrolo[3,4-b][1,4,5]oxathiazepine]-6'-carboxamide 1',1'-dioxide] | < 500 |
| C[C@H](NC(=O)C(=O)N1CC[C@]2(COc3c(cn(C)c3C(=O)Nc3ccc(F)c(Cl)c3)S(=O)(=O)N2)C1)C(F)(F)F [Example E22, (R)-N-(3-chloro-4-fluorophenyl)-7'-methyl-1-(2-oxo-2-(((S)-1,1,1-trifluoropropan-2-yl)amino)acetyl)-2'H,4'H,7'H-spiro[pyrrolidine-3,3'-pyrrolo[3,4-b][1,4,5]oxathiazepine]-6'-carboxamide 1',1'-dioxide] | < 500 |
| C[C@H](NC(=O)C(=O)N1CC[C@]2(COc3c(cn(C)c3C(=O)Nc3ccc(F)c(C(F)F)c3)S(=O)(=O)N2)C1)C(F)(F)F [Example E23, (R)-N-(3-(difluoromethyl)-4-fluorophenyl)-7'-methyl-1-(2-oxo-2-(((S)-1,1,1-trifluoropropan-2-yl)amino)acetyl)-2'H,4'H,7'H-spiro[pyrrolidine-3,3'-pyrrolo[3,4-b][1,4,5]oxathiazepine]-6'-carboxamide 1',1'-dioxide] | < 500 |
| Cn1cc2c(c1C(=O)Nc1ccc(F)c(C(F)F)c1)OC[C@]1(CCN(C(=O)C(=O)NC(C)(C)C(F)(F)F)C1)NS2(=O)=O [Example E24, (R)-N-(3-(difluoromethyl)-4-fluorophenyl)-7'-methyl-1-(2-oxo-2-((1,1,1-trifluoro-2-methylpropan-2-yl)amino)acetyl)-2'H,4'H,7'H-spiro[pyrrolidine-3,3'-pyrrolo[3,4-b][1,4,5]oxathiazepine]-6'-carboxamide 1',1'-dioxide] | < 500 |
| Cn1cc2c(c1C(=O)Nc1ccc(F)c(Cl)c1)OC[C@@]1(CCN(C(=O)C(=O)NC(C)(C)C(F)(F)F)C1)NS2(=O)=O [Example E26, (S)-N-(3-chloro-4-fluorophenyl)-7'-methyl-1-(2-oxo-2-((1,1,1-trifluoro-2-methylpropan-2-yl)amino)acetyl)-2'H,4'H,7'H-spiro[pyrrolidine-3,3'-pyrrolo[3,4-b][1,4,5]oxathiazepine]-6'-carboxamide 1',1'-dioxide] | < 500 |
| Cn1cc2c(c1C(=O)Nc1ccc(F)c(C(F)F)c1)OC[C@@]1(CCN(C(=O)C(=O)NCC(F)(F)F)C1)NS2(=O)=O [Example E27, (S)-N-(3-(difluoromethyl)-4-fluorophenyl)-7'-methyl-1-(2-oxo-2-((2,2,2-trifluoroethyl)amino)acetyl)-2'H,4'H,7'H-spiro[pyrrolidine-3,3'-pyrrolo[3,4-b][1,4,5]oxathiazepine]-6'-carboxamide 1',1'-dioxide] | < 500 |
| Cn1cc2c(c1C(=O)Nc1ccc(F)c(C(F)F)c1)OC[C@@]1(CCN(C(=O)C(=O)NC(C)(C)C(F)(F)F)C1)NS2(=O)=O [Example E28, (S)-N-(3-(difluoromethyl)-4-fluorophenyl)-7'-methyl-1-(2-oxo-2-((1,1,1-trifluoro-2-methylpropan-2-yl)amino)acetyl)-2'H,4'H,7'H-spiro[pyrrolidine-3,3'-pyrrolo[3,4-b][1,4,5]oxathiazepine]-6'-carboxamide 1',1'-dioxide] | < 500 |
| C[C@@H](NC(=O)C(=O)N1CC[C@@]2(COc3c(c(Cl)n(C)c3C(=O)Nc3ccc(F)c(C(F)F)c3)S(=O)(=O)N2)C1)C(F)(F)F [Example E29, (S)-8'-chloro-N-(3-(difluoromethyl)-4-fluorophenyl)-7'-methyl-1-(2-oxo-2-(((R)-1,1,1-trifluoropropan-2-yl)amino)acetyl)-2'H,4'H,7'H-spiro[pyrrolidine-3,3'-pyrrolo[3,4-b][1,4,5]oxathiazepine]-6'-carboxamide 1',1'-dioxide] | < 500 |
| C[C@@H](NC(=O)C(=O)N1CCC2(CC1)COc1c(c(Cl)n(C)c1C(=O)Nc1ccc(F)c(Cl)c1)S(=O)(=O)N2)C(F)(F)F [Example E30, (R)-8'-chloro-N-(3-chloro-4-fluorophenyl)-7'-methyl-1-(2-oxo-2-((1,1,1-trifluoropropan-2-yl)amino)acetyl)-2'H,4'H,7'H-spiro[piperidine-4,3'-pyrrolo[3,4-b][1,4,5]oxathiazepine]-6'-carboxamide 1',1'-dioxide] | < 500 |
| C[C@@H](NC(=O)C(=O)N1CC2(COc3c(c(Cl)n(C)c3C(=O)Nc3ccc(F)c(Cl)c3)S(=O)(=O)N2)C1)C(F)(F)F [Example E31, (R)-8'-chloro-N-(3-chloro-4-fluorophenyl)-7'-methyl-1-(2-oxo-2-((1,1,1-trifluoropropan-2-yl)amino)acetyl)-2'H,4'H,7'H-spiro[azetidine-3,3'-pyrrolo[3,4-b][1,4,5]oxathiazepine]-6'-carboxamide 1',1'-dioxide] | < 500 |
| C[C@@H](NC(=O)C(=O)N1CC2(COc3c(c(Cl)n(C)c3C(=O)Nc3ccc(F)c(C(F)F)c3)S(=O)(=O)N2)C1)C(F)(F)F [Example E32, (R)-8'-chloro-N-(3-(difluoromethyl)-4-fluorophenyl)-7'-methyl-1-(2-oxo-2-((1,1,1-trifluoropropan-2-yl)amino)acetyl)-2'H,4'H,7'H-spiro[azetidine-3,3'-pyrrolo[3,4-b][1,4,5]oxathiazepine]-6'-carboxamide 1',1'-dioxide] | < 500 |
| C[C@@H](NC(=O)C(=O)N1CC[C@]2(COc3c(c(Cl)n(C)c3C(=O)Nc3ccc(F)c(C(F)F)c3)S(=O)(=O)N2)C1)C(F)(F)F [Example E34, (R)-8'-chloro-N-(3-(difluoromethyl)-4-fluorophenyl)-7'-methyl-1-(2-oxo-2-(((R)-1,1,1-trifluoropropan-2-yl)amino)acetyl)-2'H,4'H,7'H-spiro[pyrrolidine-3,3'-pyrrolo[3,4-b][1,4,5]oxathiazepine]-6'-carboxamide 1',1'-dioxide] | < 500 |
